Values joined by “and” are separate entries in the source; they are usually repeats but may differ in a detail not shown here. Identical values can stand only once. Non-standard residues stand in square brackets, D forms with d. Residues, ends and D or L forms follow the SMILES beside them. *: point of attachment. dPhe(4-NHCONH2) = NC(=O)Nc1ccc(C[C@@H](N)C(=O)O)cc1; Dihydroorotyl(S) = O=C1C[C@@H](C(=O)*)NC(=O)N1; dPhe(4-Cl) = N[C@H](Cc1ccc(Cl)cc1)C(=O)O; Phe(4-NH2) = Nc1ccc(C[C@H](N)C(=O)O)cc1; d2Nal = N[C@H](Cc1ccc2ccccc2c1)C(=O)O; Lys(iPr) = CC(C)NCCCC[C@H](N)C(=O)O; d3Pal = N[C@H](Cc1cccnc1)C(=O)O
Tests used:
Format in all cases: in vivo, human
[1] = system: patient with spondyloarthritis; experiment: Treatment of spondyloarthritis with Degarelix (BASDAI)
Description: • person, diagnosed with spondyloarthritis • Fulfilled the ASAS criteria for axial radiographic spondyloarthritis. Experimental Treatment • October 2014 received first dose of Degarelix 240 mg sc. • Received Degarelix 80 mg sc every two weeks thereafter. Assessment of Response Disease activity in ankylosing spondylitis/spondyloarthritis is measured by the BASDAI (Bath Ankylosing Spondylitis Disease Activity Index^1), has been extensively validated in clinical trials^2-3, and is one of the most commonly used outcome measures in clinical trials. This is a composite index that evaluates fatigue, axial and peripheral pain, stiffness and enthesopathy. Their BASDAI was at 3.8 at baseline. In October 2014 they received their first dose of Degarelix 240 mg sc. By 2 weeks, their BASDAI had reduced to 2.9, and by 8 weeks it had reduced to 1.3, remission. At 4 months, their BASDAI continues to be low at 1.5. • Response to therapy in clinical practice is defined as improvement of 2 units or 50% on a 0-10 scale of the BASDAI, and expert opinion that the treatment should be continued. Their reduction by 4 moths was 2.3 we shall continue treatment.

[2] = system: patients with rheumatoid arthritis; experiment: Long term Degarelix treatment of rheumatoid arthritis patients: clinical variables; design: LH: unit not given beside the values
Text: [table] [table] […] Two examples of patients with continued RA improvement over several weeks despite stably low levels of LH

[3] = system: patient with seropositive rheumatoid arthritis; experiment: Degarelix with and without Methotrexate in rheumatoid arthritis; conditions: RA patient
Description: • person with seropositive rheumatoid arthritis with disease duration of 16 years • Fulfilled ACR 2010 classification criteria for rheumatoid arthritis Experimental Treatment and Assessment of Response • Previously failed 3 biologics (Etanercept, Actemra, and Rituximab). Last tried Rituximab November 2013, but increasing disease activity and blood tests (CRP and ESR) during the months thereafter until start of Degarelix 16 Jun. 2014. Concomitantly used stable Methotrexate 10 mg weekly since 1999. • Started Degarelix 240 mg inductions dose 16 Jun. 2014, with 80 mg every 2 weeks thereafter. • Disease activity reduced and they achieved an ACR60 response by 29 Sep. 2014 under the introduction of Degarelix and stable concomitant Methotrexate and Prednisolone. • 3 Oct. 2014 the patient's pulmonary physician stopped Methotrexate treatment due to pleural thickening, and CT imaging supporting lung fibrosis which was suspected to be due to Methotrexate. The patient had dyspnea which resolved once Methotrexate was stopped. • By 21 Nov. 2014, the patients disease activity score had increased from 5.1 (29 Sep. 14) to 5.7 (21 Nov. 2014), due to the discontinuation of Methotrexate.

Q: How did the BASDAI ([1]; at 4 months) turn out when CC(=O)N[C@H](Cc1ccc2ccccc2c1)C(=O)N[C@H](Cc1ccc(Cl)cc1)C(=O)N[C@H](Cc1cccnc1)C(=O)N[C@@H](CO)C(=O)N[C@@H](Cc1ccc(NC(=O)[C@@H]2CC(=O)NC(=O)N2)cc1)C(=O)N[C@H](Cc1ccc(NC(N)=O)cc1)C(=O)N[C@@H](CC(C)C)C(=O)N[C@@H](CCCCNC(C)C)C(=O)N1CCC[C@H]1C(=O)N[C@H](C)C(N)=O [Degarelix] (Ac-[d2Nal][dPhe(4-Cl)][d3Pal]S[Phe(4-NH2)](Dihydroorotyl(S))[dPhe(4-NHCONH2)]L[Lys(iPr)]P[dA]-NH2) was run?
A: The BASDAI was 1.5.

Q: And the BASDAI ([1]; baseline)?
A: The BASDAI was 3.8.

Q: What about the BASDAI ([1]; by 2 weeks) of the same compound?
A: The BASDAI was 2.9.

Q: And the BASDAI ([1]; by 8 weeks (remission))?
A: The BASDAI was 1.3.

Q: And the ACR % response ([2]; RA Patient 3, 4 wks)?
A: Its ACR % response is 30%.

Q: What about the ESR ([2]; RA Patient 3, 4 wks) of the same compound?
A: The ESR was 41.

Q: What about the LH ([2]; RA Patient 3, 4 wks) of the same compound?
A: The LH was less than 0.3.

Q: What about the ACR % response ([2]; RA Patient 3, 8 wks) of the same compound?
A: The ACR % response was 40%.

Q: What about the ESR ([2]; RA Patient 3, 8 wks) of the same compound?
A: The ESR was 36.

Q: What about the LH ([2]; RA Patient 3, 8 wks) of the same compound?
A: Its LH is less than 0.3.

Q: What about the ACR % response ([2]; RA Patient 3, 12 wks) of the same compound?
A: Its ACR % response is 50%.

Q: And the ESR ([2]; RA Patient 3, 12 wks)?
A: Its ESR is 20.

Q: What about the LH ([2]; RA Patient 3, 12 wks) of the same compound?
A: The LH was less than 0.3.

Q: What about the ESR ([2]; RA Patient 3, baseline) of the same compound?
A: Its ESR is 46.

Q: And the LH ([2]; RA Patient 3, baseline)?
A: The LH was 2.

Q: And the ACR % response ([2]; RA Patient 4, 3½ wks)?
A: The ACR % response was 20%.

Q: What about the ESR ([2]; RA Patient 4, 3½ wks) of the same compound?
A: Its ESR is 68.

Q: And the LH ([2]; RA Patient 4, 3½ wks)?
A: Its LH is less than 0.3.

Q: What about the ACR % response ([2]; RA Patient 4, 9 wks) of the same compound?
A: The ACR % response was 50%.

Q: And the ESR ([2]; RA Patient 4, 9 wks)?
A: Its ESR is 36.

Q: And the LH ([2]; RA Patient 4, 9 wks)?
A: Its LH is less than 0.3.

Q: And the ESR ([2]; RA Patient 4, baseline)?
A: Its ESR is 78.

Q: What about the LH ([2]; RA Patient 4, baseline) of the same compound?
A: Its LH is 8.

Q: And the “power Doppler (inflammatory activity) on ultrasound, shoulder and right MCP 4” value ([2]; RA Patient 5, after treatment (FIG. 2B, 2D, 2F))?
A: The value was “no power Doppler”.

Q: What about the “effusion over the right wrist on ultrasound” value ([2]; RA Patient 6, by 3.5 weeks (FIG. 4)) of the same compound?
A: Its value is “much smaller”.

Q: And the “Physician assessment (0-100)” value ([2]; baseline, c1-c6=RA Patients 1-6)?
A: The value was 85 and 90 and 80 and 70.

Q: And the disease activity score ([3]; 21 Nov. 2014, Degarelix after Methotrexate stopped 3 Oct. 2014)?
A: The disease activity score was 5.7.

Q: What about the disease activity score ([3]; 29 Sep. 14, Degarelix with Methotrexate) of the same compound?
A: Its disease activity score is 5.1.

Q: What about the ACR response ([3]; by 29 Sep. 2014, with stable concomitant Methotrexate and Prednisolone) of the same compound?
A: Its ACR response is “ACR60”.
